According to publication PMC10210398, “Genomic, functional and structural analyses elucidate evolutionary innovation within the sea anemone 8 toxin family” (BMC Biology, 2023):
“Also recorded” adds a separate entry of the source. Bridge positions count the residues as written; N and C are the ends. Ends that are not written are not given here.

What was measured:
hTRPA1 = test: Whole-cell patch-clamp, hTRPA1 in transiently transfected CHO cells; assay type: cell-based, human
Procedure: (§1) CHO and human embryonic kidney (HEK 293) cells were grown in DMEM-high glucose supplemented with 10% FBS, 2 mM L-glutamine, 100 U/mL penicillin-g, and 100 μg/mL streptomycin (Invitrogen) at 37 °C in a 5% CO2 and 95% air humidified atmosphere. Cells were passaged twice per week following a 5-min incubation in PBS containing 0.2 g/L EDTA (Invitrogen, Carlsbad, CA).
(§2) CHO cells (ATCC) were transiently transfected with plasmids encoding hKV1.1, hKV1.2, hKV10.1, hKCa3.1, hTRPA1, or hNaV1.7 using Lipofectamine 2000 (Invitrogen, Carlsbad, CA) following the manufacturer’s protocol, then cultured under standard conditions. The cells were co-transfected with a plasmid encoding green fluorescent protein (GFP) at a molar ratio of 10:1 except for hKV1.1, hKV1.2, and hKCa3.1 for which GFP-tagged ion channel vectors were used. Currents were recorded 24–36 h after transfection. […] Transfected cells were washed twice with 2 mL of ECS (see below) and re-plated onto 35-mm polystyrene cell culture dishes (Cellstar, Greiner Bio-One). hKV1.3 currents were recorded from activated peripheral blood mononuclear cells (PBMCs, see below) 3–4 days after activation. […]
(§3) Conventional whole-cell patch-clamp electrophysiology was used to record ionic currents. […] Data were analysed using Prism 8 (GraphPad, CA, USA) and ClampFit 10.5 software (Molecular Devices Inc., Sunnyvale, CA). […]

hTRPV1 = test: Whole-cell patch-clamp, hTRPV1 stably expressed in CHO cells; assay type: cell-based, human
Procedure: as §1, §2, §3

[1] = system: hKV11.1 channel (hERG, hKCNH2 gene); test: Whole-cell patch-clamp, hKV11.1 (hERG) stably expressed in HEK 293 cells; assay type: cell-based, human
Procedure: as §1, §2, §3

hKV1.2 = biological target: T1, hKV1.2 (Homo sapiens, UniProt P16389); test: Whole-cell patch-clamp, hKV1.2 in transiently transfected CHO cells; assay type: cell-based; details: for RCF_mean (remaining current fraction, I/I0): mean
T1 construct: GFP; expressed in transfected cells; host or cells: CHO cells (ATCC), transient transfection with Lipofectamine 2000
T1 sequence (P16389 whole entry): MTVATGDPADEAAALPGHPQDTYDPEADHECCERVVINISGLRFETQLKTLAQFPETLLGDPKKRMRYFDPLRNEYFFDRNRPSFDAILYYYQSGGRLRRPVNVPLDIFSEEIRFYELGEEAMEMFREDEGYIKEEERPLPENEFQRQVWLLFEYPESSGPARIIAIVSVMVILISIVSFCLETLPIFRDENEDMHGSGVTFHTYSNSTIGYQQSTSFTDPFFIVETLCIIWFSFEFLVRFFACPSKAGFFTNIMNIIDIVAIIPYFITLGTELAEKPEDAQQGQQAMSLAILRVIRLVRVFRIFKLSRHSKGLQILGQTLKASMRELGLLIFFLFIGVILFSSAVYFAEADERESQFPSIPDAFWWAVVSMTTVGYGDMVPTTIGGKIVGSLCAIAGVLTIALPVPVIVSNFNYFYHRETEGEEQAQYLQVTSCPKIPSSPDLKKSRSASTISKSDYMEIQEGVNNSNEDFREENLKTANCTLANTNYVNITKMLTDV
Procedure: as §1
(§4) CHO cells (ATCC) were transiently transfected with plasmids encoding hKV1.1, hKV1.2, hKV10.1, hKCa3.1, hTRPA1, or hNaV1.7 using Lipofectamine 2000 (Invitrogen, Carlsbad, CA) following the manufacturer’s protocol, then cultured under standard conditions. The cells were co-transfected with a plasmid encoding green fluorescent protein (GFP) at a molar ratio of 10:1 except for hKV1.1, hKV1.2, and hKCa3.1 for which GFP-tagged ion channel vectors were used. Currents were recorded 24–36 h after transfection. […] HEK 293 cells stably expressing the hKv11.1 channel (hERG, hKCNH2 gene, a kind gift from H. Wulff, University of California, Davis, CA) and mKCa1.1 channel (BKCa, hKCNMA1, a kind gift from C. Beeton, Baylor College of Medicine, Houston, TX) were used. hTRPV1 channels were expressed in a stable manner in CHO cells. Transfected cells were washed twice with 2 mL of ECS (see below) and re-plated onto 35-mm polystyrene cell culture dishes (Cellstar, Greiner Bio-One). hKV1.3 currents were recorded from activated peripheral blood mononuclear cells (PBMCs, see below) 3–4 days after activation. Human veinous blood was obtained from anonymised healthy donors. PBMCs were isolated using Histopaque1077 (Sigma-Aldrich Hungary, Budapest, Hungary) density gradient centrifugation. Cells obtained were resuspended in RPMI 1640 medium containing 10% foetal calf serum (Sigma-Aldrich Hungary, Budapest, Hungary), 100 μg/mL penicillin, 100 μg/mL streptomycin, and 2 mM L-glutamine, seeded in a 24-well culture plate at a density of 5–6 × 10^5 cells/mL, and grown in a 5% CO2 incubator at 37 °C for 3–5 days. Phytohemagglutinin A (PHA, Sigma-Aldrich Hungary, Budapest, Hungary) was added to the medium at 10 μg/mL to amplify the KV1.3 expression. Cells were washed gently twice with 2 mL of ECS for the patch-clamp experiments.
Conventional whole-cell patch-clamp electrophysiology was used to record ionic currents. Micropipettes were pulled in four stages using a Flaming Brown automatic pipette puller (Sutter Instruments, San Rafael, CA) from Borosilicate Standard Wall with Filament aluminium–silicate glass (Harvard Apparatus Co., Holliston, MA) with tip diameters between 0.5 and 1 μm and heat polished to a tip resistance of 2–8 MΩ. All measurements were carried out by using Axopatch 200B amplifier connected to a personal computer using Axon Digidata 1550A data acquisition hardware (Molecular Devices, Sunnyvale, CA). In general, the holding potential was − 120 mV. Records were discarded when a leak at the holding potential was > 10% of the peak current at the test potential. Series resistance compensation up to 70% was used to minimise voltage errors and achieve proper voltage-clamp conditions. Experiments were performed at room temperature (20–24 °C). Data were analysed using Prism 8 (GraphPad, CA, USA) and ClampFit 10.5 software (Molecular Devices Inc., Sunnyvale, CA). Before analysis, whole-cell current traces were corrected for ohmic leakage and digitally filtered with a three-point boxcar smoothing filter. For hKCa3.1, hTRPA1 and hTRPV1, the reversal potential for K^+ was determined and only those currents were analysed for which the reversal potential fell into the range of the theoretical reversal potential ± 5 mV (− 86.5 ± 5 mV for KCa3.1, and 0 ± 5 mV for hTRPA1 and hTRPV1).

hKCa3.1 = test: Whole-cell patch-clamp, hKCa3.1 in transiently transfected CHO cells; assay type: cell-based, human
Procedure: as §1, §2, §3

hKV1.1 = assay type: cell-based, human
Procedure: as §1
as §4, with “PBMCs were isolated using Histopaque1077 (Sigma-Aldrich Hungary, Budapest, Hungary) density gradient centrifugation. Cells obtained were resuspended in RPMI 1640 medium containing 10% foetal calf serum (Sigma-Aldrich Hungary, Budapest, Hungary), 100 μg/mL penicillin, 100 μg/mL streptomycin, and 2 mM L-glutamine, seeded in a 24-well culture plate at a density of 5–6 × 10^5 cells/mL, and grown in a 5% CO2 incubator at 37 °C for 3–5 days. Phytohemagglutinin A (PHA, Sigma-Aldrich Hungary, Budapest, Hungary) was added to the medium at 10 μg/mL to amplify the KV1.3 expression. Cells were washed gently twice with 2 mL of ECS for the patch-clamp experiments.” left out
(§5) Conventional whole-cell patch-clamp electrophysiology was used to record ionic currents. […] Data were analysed using Prism 8 (GraphPad, CA, USA) and ClampFit 10.5 software (Molecular Devices Inc., Sunnyvale, CA). […] For hKCa3.1, hTRPA1 and hTRPV1, the reversal potential for K^+ was determined and only those currents were analysed for which the reversal potential fell into the range of the theoretical reversal potential ± 5 mV (− 86.5 ± 5 mV for KCa3.1, and 0 ± 5 mV for hTRPA1 and hTRPV1).

mKCa1.1 channel = assay type: cell-based
Procedure: as §1
as §4, with “PBMCs were isolated using Histopaque1077 (Sigma-Aldrich Hungary, Budapest, Hungary) density gradient centrifugation. Cells obtained were resuspended in RPMI 1640 medium containing 10% foetal calf serum (Sigma-Aldrich Hungary, Budapest, Hungary), 100 μg/mL penicillin, 100 μg/mL streptomycin, and 2 mM L-glutamine, seeded in a 24-well culture plate at a density of 5–6 × 10^5 cells/mL, and grown in a 5% CO2 incubator at 37 °C for 3–5 days. Phytohemagglutinin A (PHA, Sigma-Aldrich Hungary, Budapest, Hungary) was added to the medium at 10 μg/mL to amplify the KV1.3 expression. Cells were washed gently twice with 2 mL of ECS for the patch-clamp experiments.” left out
as §5

hKV1.3 = assay type: cell-based, human
Procedure: as §4, with “Phytohemagglutinin A (PHA, Sigma-Aldrich Hungary, Budapest, Hungary) was added to the medium at 10 μg/mL to amplify the KV1.3 expression. Cells were washed gently twice with 2 mL of ECS for the patch-clamp experiments.” left out
as §5

hNaV1.7 = test: Whole-cell patch-clamp, hNaV1.7 in transiently transfected CHO cells; assay type: cell-based, human
Procedure: as §1, §2, §3

Sequence: GYGKGRPGCYNHYDESICGGVIKDEHCKAGRGSRMGKFALKNCQFQCGLC (disulfide 9-47, 18-50, 27-43) [SA8]
- RCF_mean (remaining current fraction, I/I0) (hTRPA1; TRPA1, 100 nM SA8, mean, n = 5, SEM 0.0123957): 0.9628
- effect on current, in words (hTRPA1; hTRPA1, CHO cells, activated by 100 µM AITC, 100 nM SA8): no effect; also recorded: did not inhibit
- RCF_mean (remaining current fraction, I/I0) (hTRPV1; TRPV1, 100 nM SA8, mean, n = 5, SEM 0.0111172): 0.9606
- effect on current, in words (hTRPV1; hTRPV1, CHO cells, activated by 1 µM capsaicin, 100 nM SA8): no effect; also recorded: did not inhibit
- RCF_mean (remaining current fraction, I/I0) ([1]; Kv11.1, 100 nM SA8, mean, n = 5, SEM 0.0157239): 1.029
- effect on current, in words ([1]; hKV11.1 (hERG), HEK 293, 100 nM SA8): no effect; also recorded: did not inhibit
- association and dissociation rates (hKV1.2; 100 nM SA8, hKV1.2): rapid
- reversibility of block upon washing (hKV1.2; 100 nM SA8, hKV1.2, inhibitor-free solution): almost fully reversible
- time for development of equilibrium block and recovery (hKV1.2; 100 nM SA8, hKV1.2, recovery up to ~ 85% of control current): ~ 1 min
- IC50 (hKV1.2; 0.01, 0.1, 1 and 10 µM SA8, linear least squares fit Y = 1 + slope × [toxin], n = 4, room temperature (20–24 °C), ECS pH 7.35, 0.1 mg/mL BSA, CHO cells): 40.8 ± 4.9 µM
- RCF_mean (remaining current fraction, I/I0) (hKV1.2; Kv1.2, 10 nM SA8, n = 5, SEM 0.00976051): 0.9869
- RCF_mean (remaining current fraction, I/I0) (hKV1.2; Kv1.2, 100 nM SA8, n = 4, SEM 0.0156624): 0.9412
- RCF_mean (remaining current fraction, I/I0) (hKV1.2; Kv1.2, 1000 nM SA8, n = 4, SEM 0.0249691): 0.9151
- RCF_mean (remaining current fraction, I/I0) (hKV1.2; Kv1.2, 10000 nM SA8, n = 6, SEM 0.0222303): 0.772
- recovery of current upon washing (of control current) (hKV1.2; after 100 nM SA8, hKV1.2, inhibitor-free solution): ~ 85%
- effect on current, in words (hKV1.2; hKV1.2, CHO cells, 100 nM): weak block; also recorded: modest block; also recorded: weak inhibition
- RCF_mean (remaining current fraction, I/I0) (hKCa3.1; KCa3.1, 100 nM SA8, mean, n = 6, SEM 0.0170688): 0.9712
- effect on current, in words (hKCa3.1; hKCa3.1, CHO cells, 100 nM SA8): no effect; also recorded: did not inhibit
- RCF_mean (remaining current fraction, I/I0) (hKV1.1; Kv1.1, 100 nM SA8, mean, n = 4, SEM 0.0202631): 1.029
- effect on current, in words (hKV1.1; hKV1.1, CHO cells, 100 nM SA8): no effect; also recorded: did not inhibit
- RCF_mean (remaining current fraction, I/I0) (mKCa1.1 channel; KCa1.1, 100 nM SA8, mean, n = 4, SEM 0.0158455): 1.052
- effect on current, in words (mKCa1.1 channel; mKCa1.1, HEK 293, 100 nM SA8): no effect; also recorded: did not inhibit
- RCF_mean (remaining current fraction, I/I0) (hKV1.3; Kv1.3, 100 nM SA8, mean, n = 3, SEM 0.00826878): 1.03
- effect on current, in words (hKV1.3; hKV1.3, activated PBMCs, 100 nM SA8): no effect; also recorded: did not inhibit
- RCF_mean (remaining current fraction, I/I0) (hNaV1.7; Nav1.7, 1000 nM SA8, mean, n = 5, SEM 0.022988): 1.02
- effect on current, in words (hNaV1.7; hNaV1.7, CHO cells, 1 µM SA8): no effect; also recorded: did not inhibit
